Assay results published in patent publication US20110059186A1, “CANCER STEM CELL-TARGETED AND DRUG RESISTANT CANCER THERAPY” (KOMINOX USA, INC., priority 2009, published 2011).
Like-named read-outs stand apart in the source and are kept apart here.

How the values were obtained:
Assay type in all cases: cell-based, human
[1] = test system: DU145 wt cells; experiment: MTT proliferation assay, DU145 wt
Experimental: (§1) Cell Lines: DU145 wt, DU145/Pac200 and DU145/Doc50 cells were provided by Dr. Hussain, UMGCC, University of Maryland. The cell lines were cultured as recommended; in 1:1 DMEM/F12 media (Invitrogen) supplemented with 5% FBS, 1% antibiotics and grown under standard conditions at 37° C. and 5% CO2. Paclitaxel and docetaxel resistant clones were kept under selection pressure of the drugs.
(§2) MTT Proliferation Assay: Exponentially growing cells were harvested and plated in 96-well plates (1,500/well for DU145 wt, and 2,000-3,000/well for DU145/Pac200 and DU145/Doc50). Drugs being tested were added at concentrations ranging from 0.01 μM to 100 μM to asses their growth inhibitory potential. After 5 days of continuous exposure to drug, the vital dye 3-(4,5-dimethylthiazol-2-yl)-2,5-diphenyltetrazoliumbromide (MTT) was added to the plates. The conversion of MTT to purple formazan by viable cells was measured using a Synergy2 plate reader at 550 nm and Gen5 software. Growth curves were generated using Microsoft Excel and growth inhibitory concentration 50 (IC50) and 100% were determined.

[2] = test system: DU145/Doc50 (docetaxel resistant) cells; experiment: MTT proliferation assay, DU145/Doc50
Experimental: as §1, §2

[3] = test system: DU145/Pac200 (paclitaxel resistant) cells; experiment: MTT proliferation assay, DU145/Pac200
Experimental: as §1, §2

[4] = test system: side population of LAPC-4 cells
Experimental: (§3) Three samples were analyzed each time. Of the samples one was treated with DCV only, another was treated with DCV and 50 μM Verapamil (PgP inhibitor), and the last was treated with DCV and 10 μM Fumitremorgin C (FTC, BCRP inhibitor). The samples were then read and analyzed using flow cytometry.
(§4) Flow Cytometry: Samples were read on a BDLSR II flow cytometer. […] Detectors at 450/50 (blue) and 680/30 (red) intercepted the emitted wavelength and plotted the data on the scatter plot accordingly. CD44 and Pgp staining was performed using PE (Pgp) or APC (CD44) labeled antibodies and their isotype controls following routine procedures for epitope labeling.
(§5) Each of the prostate cell lines was analyzed for the existence of a cancer stem-like cell fraction using DCV side population analysis. […] The occurrence of a SP is based on the expression of drug efflux pumps such as P-glycoprotein or BCRP, which are responsible for preventing standard cytotoxic therapy from working. […] Because the hormone therapies, e.g., androgen synthesis inhibitors, are not substrates of drug efflux pumps, these findings are not surprising.

[5] = test system: side population of LAPC-4/CSS100 cells
Experimental: as §3, §4, §5

[6] = test system: side population of DU145/Doc50 cells
Experimental: as §3, §4, §5

[7] = test system: side population of LnCaP/C81 cells
Experimental: as §3, §4, §5

[8] = test system: side population of LnCaP cells
Experimental: as §3, §4, §5

[9] = test system: side population of DU145 cells
[10] = test system: side population of DU145/Pac200 cells
[11] = test system: prostate cancer cell lines (taxane-resistant, androgen resistant and parental); experiment: MTT assay across the panel of prostate cancer cell lines
Experimental: as §2
Taxane resistant cell lines DU145/Pac200 (highly pacitaxel resistant) and DU145/Doc50 (highly docetaxel resistant) together with the parental cell line DU145 as well as the androgen resistant cancer cell lines (LNCaP/C81 and LAPC-4/CSS100) and their corresponding hormone responsive parental cell lines (LNCaP and LAPC-4) were tested for their response to sodium meta arsenite.
The cancer cell lines that were resistant to paclixel and docetaxel were tested using a well-established tumor clonigenic stem cell assay for their response to KML001. (FIG. 6) The assay allows only the cancer stem cell population to grow in a soft agar matrix owing to their self-renewal capability. […]

[12] = test system: LAPC-4/CSS100 cells; conditions: read-out: IC50 KML001
[13] = test system: LAPC-4 cells; conditions: read-out: IC50 KML001
[14] = test system: DU145 cancer stem cell population; conditions: read-out: IC50, colony forming capability
[15] = test system: hTERT transcript
[16] = test system: Pgp positive cell population of taxane-resistant prostate cancer cell lines; experiment: Pgp surface expression by flow cytometry; conditions: treatment at IC50 for 72 hours
Experimental: Flow Cytometry: Samples were read on a BDLSR II flow cytometer. A […] violet laser excited the DCV dye producing varying wavelengths based on cell differentiation. Detectors at 450/50 (blue) and 680/30 (red) intercepted the emitted wavelength and plotted the data on the scatter plot accordingly. CD44 and Pgp staining was performed using PE (Pgp) or APC (CD44) labeled antibodies and their isotype controls following routine procedures for epitope labeling.
The drug efflux pump (Pgp) is functionally expressed (at the membrane) in the majority of cells in the taxane-resistant prostate cancer cell lines, which is expected since the SP of those cell lines was suppressible with the drug efflux pump inhibitor verapamil. Treatment with KML001 at IC50 for 72 hours reduced the Pgp positive cell population, which corroborates the results of the clonogenic and SP assay.

[17] = test system: DU145/Pac200 cancer stem cell population; conditions: read-out: IC50, colony forming capability
[18] = test system: LnCaP/C81 cells; conditions: read-out: IC50 KML001
[19] = test system: LnCaP cells; conditions: read-out: IC50 KML001
[20] = Du145 Doc50 relative to DU145 wt
[21] = DU145/Pac200 relative to DU145 wt

CC(=O)O[C@@]12CO[C@@H]1C[C@H](O)[C@@]1(C)C(=O)[C@H](O)C3=C(C)[C@@H](OC(=O)[C@H](O)[C@@H](NC(=O)OC(C)(C)C)c4ccccc4)C[C@@](O)([C@@H](OC(=O)c4ccccc4)[C@H]21)C3(C)C [Docetaxel]
Docetaxel Resistance (fold) ([1]; DU145 wt (reference line)): 1 fold
IC50 ([1]; Homo sapiens, DU-145, DU145 wt, read-out: Docetaxel IC50): 0.5 nM
Docetaxel Resistance (fold) [2, 20]: 2000 fold
IC50 ([2]; Homo sapiens, DU-145, Du145 Doc50, read-out: Docetaxel IC50): 1000 nM
Docetaxel Resistance (fold) [3, 21]: 400 fold
IC50 ([3]; Homo sapiens, DU-145, DU145/Pac200, read-out: Docetaxel IC50): 200 nM

COc1ccc2c3c([nH]c2c1)[C@H](C=C(C)C)N1C(=O)[C@@H]2CCCN2C(=O)[C@@H]1C3 [FTC, Fumitremorgin C]
suppression of SP by efflux pump inhibitor ([4]; LAPC-4): suppressible
SP % with FTC ([4]; LAPC-4, DCV with 10 μM FTC, SP 1.54 % without inhibitor): 2.24%
SP % with FTC ([5]; LAPC-4/CSS100, DCV with 10 μM FTC, SP 0.36 % without inhibitor): 0.30%
suppression of SP by efflux pump inhibitor ([5]; hormone resistant derivative of LAPC-4): suppressible
SP % with FTC ([6]; DU145/Doc50, DCV with 10 μM FTC, SP 40.3 % without inhibitor): 18.35%
inhibition of SP by efflux pump inhibitor ([6]; Doc resistant DU145 cells): not
suppression of SP by efflux pump inhibitor ([7]; LnCaP/C81): suppressible
SP % with FTC ([7]; LnCaP/C81, DCV with 10 μM FTC, SP 0.16 % without inhibitor): 0.11%
suppression of SP by efflux pump inhibitor ([8]; LnCaP parental line): suppressible
SP % with FTC ([8]; LnCaP, DCV with 10 μM FTC, SP 0.66 % without inhibitor): 0.04%
SP % with FTC ([9]; DU145, DCV with 10 μM FTC, SP 1.04 % without inhibitor): 0.06%
SP % with FTC ([10]; DU145/Pac200, DCV with 10 μM FTC, SP 55 % without inhibitor): 56.5%
inhibition of SP by efflux pump inhibitor ([10]; Pac resistant DU145 cells): not

O=[As][O-].[Na+] [KML001, sodium meta arsenite]
sensitivity of resistant versus parental cell lines ([11]; growth curves from standard MTT assays): equally effective
IC50 ([11]; taxane-resistant, androgen resistant and hormone responsive parental lines, read-out: IC50's across all prostate cancer cell lines): 1000 to 6000 nM
IC50 [12]: 3000 nM
IC50 [13]: 4000 nM
IC50 [14]: 6000 nM
hTERT transcript level [15]: significantly decreases
Pgp positive cell population [16]: reduced
IC100 concentration [1]: 13 µM
growth inhibition [1]: marked inhibition of growth
IC50 ([1]; read-out: IC50 KML001): 4000 nM
IC50 [17]: 6000 nM
IC50 [18]: 1000 nM
growth inhibition ([2]; DU145/Doc50, MTT): marked inhibition of growth
IC50 ([2]; DU145/Doc50, MTT, 5 days continuous exposure, read-out: IC50 KML001): 5000 nM
IC50 [19]: 4000 nM
effect on mature (non-SP) cells after pretreatment [9]: also eradicated
effect on side population (SP) after pretreatment [9]: drastically reducing the SP
growth inhibition ([3]; DU145/Pac200, MTT): marked inhibition of growth
IC50 ([3]; DU145/Pac200, MTT, 5 days continuous exposure, read-out: IC50 KML001): 6000 nM
effect on mature (non-SP) cells after pretreatment [10]: also eradicated
effect on side population (SP) after pretreatment [10]: drastically reducing the SP

CC(=O)O[C@H]1C(=O)[C@@]2(C)[C@H]([C@H](OC(=O)c3ccccc3)[C@]3(O)C[C@H](OC(=O)[C@H](O)[C@@H](NC(=O)c4ccccc4)c4ccccc4)C(C)=C1C3(C)C)[C@]1(OC(C)=O)CO[C@@H]1C[C@@H]2O [Paclitaxel]
Paclitaxel Resistance (fold) ([1]; DU145 wt (reference line)): 1 fold
IC50 ([1]; Homo sapiens, DU-145, DU145 wt, read-out: Paclitaxel IC50): 2.5 nM
Paclitaxel Resistance (fold) [2, 20]: 400 fold
IC50 ([2]; Homo sapiens, DU-145, Du145 Doc50, read-out: Paclitaxel IC50): 1000 nM
Paclitaxel Resistance (fold) [3, 21]: 140 fold
IC50 ([3]; Homo sapiens, DU-145, DU145/Pac200, read-out: Paclitaxel IC50): 350 nM

COc1ccc(CCN(C)CCCC(C#N)(c2ccc(OC)c(OC)c2)C(C)C)cc1OC (stereo not shown) [Verapamil]
SP % with Verapamil [4]: 1.63%
SP % with Verapamil [5]: 0.19%
SP % with Verapamil [6]: 1.35%
SP % with Verapamil [7]: 0.07%
SP % with Verapamil [8]: 0.12%
SP % with Verapamil ([9]; DU145, DCV with 50 μM Verapamil, SP 1.04 % without inhibitor): 0.16%
SP % with Verapamil [10]: 0.07%

N.N.[Cl][Pt][Cl] [cisplatin]
IC50 ([1]; DU145 parental, standard MTT, read-out: IC50 of cisplatin): 4000 nM
IC50 ([3]; DU145/Pac200, standard MTT, read-out: IC50 of cisplatin): 3000 nM
